Laboratory results taken from patent US20250346556A1, “IMPROVEMENTS IN OR RELATING TO ORGANIC COMPOUNDS” (Givaudan SA, priority 2019, published 2025).

Key:
Format in all cases: in vivo
[1] = Taste evaluation, comparison with MSG, by 5 trained panellists
Method: An aqueous NaCl solution (0.5% by weight) was prepared. To this base was added: • a) 30 ppm of the compound Ia (sample 6a); • b) 200 ppm of MSG (sample 6b, benchmark).
The tastes of the two samples 6a and 6b have been evaluated by 5 trained panellists. They were asked to rate the intensity of sample 6a as difference to sample 6b and to describe the overall effect. Typically, the following descriptors are used to describe the effect: umami, salty, bitter, overall sweet.

[2] = Taste evaluation, comparison with further derivatives, by 5 trained panellists; settings: 20 ppm in aqueous NaCl solution (0.5% by weight); compared with 20 ppm compound Ia
Method: An aqueous NaCl solution (0.5% by weight) was prepared. To this base was added: • a) 20 ppm of the compound Ia (sample 7a); • b) 20 ppm of the compound Ib (sample 7b); • c) 20 ppm of the compound Ic (sample 7c).
The tastes of the three samples 7a, 7b and 7c have been evaluated by 5 trained panellists.

[3] = Taste evaluation of amide ester analogues by four experienced tasters; settings: 20 ppm in aqueous NaCl (0.5% by weight) and MSG (0.05% by weight)
Method: An aqueous solution of NaCl (0.5% by weight) and MSG (0.05% by weight) was prepared. To this base was added: • a) 20 ppm of the mixture of the compound (Id+Ie) in a ratio 1:2 (sample 8a); • b) 20 ppm of the compound If (sample 8b).
A group of four experienced tasters compared the samples 8a and 8b with the pure base.

Compound: C/C=C(\C)C(=O)NCCCCNC(=O)C=Cc1ccccc1 [compound Ia, (E)-N-(4-cinnamamidobutyl)-2-methylbut-2-enamide]
- overall preference ([1]; 30 ppm in 0.5% NaCl versus 200 ppm MSG (sample 6b)): preferred over sample 6b
- umami on bitter level versus benchmark ([1]; 30 ppm in 0.5% NaCl versus 200 ppm MSG (sample 6b, benchmark)): a little higher than benchmark
- taste description ([1]; 30 ppm in aqueous NaCl solution (0.5% by weight), 5 trained panellists): umami, brothy and longlasting

Compound: C/C=C(\C)C(=O)NCCCCNC(=O)/C=C/c1ccc(OC)cc1 [compound Ib, (E)-N-(4-((E)-3-(4-methoxyphenyl)acrylamido)butyl)-2-methylbut-2-enamide]
- taste description in comparison to sample 7a [2]: more umami, stronger and more lingering, more sweet, but having an off note, animalic, floral sweet

Compound: C/C=C(\C)C(=O)NCCCCNC(=O)c1ccc(OC)cc1 [compound Ic, (E)-4-methoxy-N-(4-(2-methylbut-2-enamido)butyl)benzamide]
- taste description in comparison to sample 7a [2]: more umami and cleaner umami than sample 7a

Compound: C/C=C(\C)C(=O)NCCCCOC(=O)C=Cc1ccccc1 [compound If, 4-((E)-2-methylbut-2-enamido)butyl cinnamate]
- additional taste description [3]: a pleasant taste experience
- umami compared with the pure base ([3]; four tasters, unanimous): more umami than the base
